How the values were obtained:
Assay in all cases: SILAC RP-ABPP
Type in all cases: cell-based
[1] = target: T1, PPA2 Inorganic pyrophosphatase 2 (Q9H2U2) (Homo sapiens, UniProt Q9H2U2); conditions: SILAC H/L, HEK293T
T1 construct: In Situ Labelling of Cells with Hydrazine Probes for MS Experiments; endogenous in cells
Summary of the method: (§1)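 Heavy SILAC HEK293T or MDA-MB-231 cells were treated with hydrazine probe 1 (3 mM, 0.5 h); light cells received non-clickable hydrazine 3 at the same concentration (enrichment) or probe plus 10× competitor 3 (competition). Lysates were mixed, clicked to biotin-azide and analysed by LC-MS; values are median heavy:light peptide ratios averaged over ≥3 replicates.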

[2] = target: T2, GLA Alphagalactosidase A (P06280) (Homo sapiens, UniProt P06280); conditions: SILAC H/L, HEK293T
T2 construct: shared by both the endogenous and recombinant forms of these proteins; endogenous in cells; host or cells: HEK293T and MDA-MB-231
T2 sequence (P06280 32-429): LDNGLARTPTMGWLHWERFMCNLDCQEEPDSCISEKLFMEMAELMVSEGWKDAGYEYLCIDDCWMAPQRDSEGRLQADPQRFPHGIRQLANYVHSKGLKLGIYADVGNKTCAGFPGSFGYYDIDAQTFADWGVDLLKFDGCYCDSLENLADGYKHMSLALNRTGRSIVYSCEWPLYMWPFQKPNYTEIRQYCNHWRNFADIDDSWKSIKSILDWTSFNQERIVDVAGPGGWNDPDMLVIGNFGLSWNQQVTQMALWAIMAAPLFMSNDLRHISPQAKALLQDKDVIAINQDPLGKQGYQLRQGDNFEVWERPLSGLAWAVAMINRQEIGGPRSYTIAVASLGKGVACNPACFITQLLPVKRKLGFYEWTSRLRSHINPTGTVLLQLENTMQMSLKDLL
Summary of the method: as §1

[3] = target: T3, THBS1 Thrombospondin1 (P07996) (Homo sapiens, UniProt P07996); conditions: SILAC H/L, MDA-MB-231
T3 construct: In Situ Labelling of Cells with Hydrazine Probes for MS Experiments; endogenous in cells
T3 sequence (P07996 19-1170): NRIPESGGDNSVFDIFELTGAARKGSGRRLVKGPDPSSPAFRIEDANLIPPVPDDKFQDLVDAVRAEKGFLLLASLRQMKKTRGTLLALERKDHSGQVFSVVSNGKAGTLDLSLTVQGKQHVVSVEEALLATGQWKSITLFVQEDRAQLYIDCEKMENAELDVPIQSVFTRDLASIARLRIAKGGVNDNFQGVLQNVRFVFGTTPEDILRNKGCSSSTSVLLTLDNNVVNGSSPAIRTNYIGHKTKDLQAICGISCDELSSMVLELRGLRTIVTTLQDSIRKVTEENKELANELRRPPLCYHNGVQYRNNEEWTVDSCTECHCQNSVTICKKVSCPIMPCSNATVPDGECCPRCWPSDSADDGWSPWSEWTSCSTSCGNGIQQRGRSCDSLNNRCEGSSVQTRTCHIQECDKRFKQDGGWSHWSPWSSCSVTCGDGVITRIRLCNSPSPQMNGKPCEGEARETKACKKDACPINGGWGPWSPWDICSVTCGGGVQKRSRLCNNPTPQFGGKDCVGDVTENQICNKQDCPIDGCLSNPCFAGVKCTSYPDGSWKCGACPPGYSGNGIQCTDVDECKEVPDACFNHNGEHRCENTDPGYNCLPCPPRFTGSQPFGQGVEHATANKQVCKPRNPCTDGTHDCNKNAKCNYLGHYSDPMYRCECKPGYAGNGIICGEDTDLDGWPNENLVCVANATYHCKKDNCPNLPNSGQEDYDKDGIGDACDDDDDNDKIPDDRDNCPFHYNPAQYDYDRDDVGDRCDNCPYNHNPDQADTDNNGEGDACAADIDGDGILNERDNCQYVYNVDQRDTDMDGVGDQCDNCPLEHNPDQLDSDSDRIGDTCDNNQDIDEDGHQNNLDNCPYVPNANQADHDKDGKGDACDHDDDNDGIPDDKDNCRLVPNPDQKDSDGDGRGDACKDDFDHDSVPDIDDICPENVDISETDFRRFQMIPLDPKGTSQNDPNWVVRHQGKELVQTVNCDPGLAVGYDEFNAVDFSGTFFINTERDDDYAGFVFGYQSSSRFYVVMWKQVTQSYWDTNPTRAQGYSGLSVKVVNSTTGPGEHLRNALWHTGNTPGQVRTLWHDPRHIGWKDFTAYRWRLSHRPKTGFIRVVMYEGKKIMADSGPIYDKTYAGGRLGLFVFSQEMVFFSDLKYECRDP
Summary of the method: as §1

[4] = target: T4, CCBL2 Kynurenine oxoglutarate transaminase (Q6YP21) (Homo sapiens, UniProt Q6YP21); conditions: SILAC H/L, HEK293T
T4 construct: shared by both the endogenous and recombinant forms of these proteins; endogenous in cells; host or cells: HEK293T and MDA-MB-231
T4 sequence (Q6YP21 whole entry): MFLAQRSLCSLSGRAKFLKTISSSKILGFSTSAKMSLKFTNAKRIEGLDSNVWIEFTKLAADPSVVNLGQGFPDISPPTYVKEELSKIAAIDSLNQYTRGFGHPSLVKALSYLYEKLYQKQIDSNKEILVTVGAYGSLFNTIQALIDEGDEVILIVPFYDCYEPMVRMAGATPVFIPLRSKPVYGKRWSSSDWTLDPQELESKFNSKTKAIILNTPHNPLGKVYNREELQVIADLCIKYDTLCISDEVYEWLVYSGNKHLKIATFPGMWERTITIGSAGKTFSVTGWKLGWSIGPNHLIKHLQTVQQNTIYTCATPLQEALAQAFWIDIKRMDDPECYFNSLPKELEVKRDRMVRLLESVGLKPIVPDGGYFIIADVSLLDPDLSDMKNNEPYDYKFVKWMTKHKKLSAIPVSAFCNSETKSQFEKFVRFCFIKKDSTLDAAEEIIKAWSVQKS
Summary of the method: as §1

[5] = target: T5, APP Amyloid beta A4 protein (P05067) (Homo sapiens, UniProt P05067); conditions: SILAC H/L, MDA-MB-231
T5 construct: shared by both the endogenous and recombinant forms of these proteins; endogenous in cells; host or cells: HEK293T and MDA-MB-231
T5 sequence (P05067 18-770): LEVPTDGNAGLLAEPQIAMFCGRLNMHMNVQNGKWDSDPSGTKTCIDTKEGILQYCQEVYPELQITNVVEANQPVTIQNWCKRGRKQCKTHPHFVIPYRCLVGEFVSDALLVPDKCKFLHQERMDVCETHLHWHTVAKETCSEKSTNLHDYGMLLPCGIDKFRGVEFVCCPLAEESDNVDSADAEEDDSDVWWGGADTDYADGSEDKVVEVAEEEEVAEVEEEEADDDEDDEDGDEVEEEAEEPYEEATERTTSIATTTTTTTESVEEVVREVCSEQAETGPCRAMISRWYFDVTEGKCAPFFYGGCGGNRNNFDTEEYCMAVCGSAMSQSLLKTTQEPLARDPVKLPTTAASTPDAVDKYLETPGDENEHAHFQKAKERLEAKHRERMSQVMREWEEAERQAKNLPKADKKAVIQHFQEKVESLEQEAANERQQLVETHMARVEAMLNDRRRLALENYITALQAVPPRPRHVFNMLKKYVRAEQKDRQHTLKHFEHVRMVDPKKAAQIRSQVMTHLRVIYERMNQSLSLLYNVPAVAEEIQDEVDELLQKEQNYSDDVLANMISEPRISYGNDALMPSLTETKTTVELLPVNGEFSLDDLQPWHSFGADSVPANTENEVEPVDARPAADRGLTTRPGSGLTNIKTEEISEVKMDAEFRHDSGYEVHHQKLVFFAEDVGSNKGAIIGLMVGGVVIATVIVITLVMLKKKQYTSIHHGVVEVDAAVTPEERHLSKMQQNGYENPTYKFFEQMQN
Summary of the method: as §1

[6] = target: T6, DCUN1D5 DCN1like protein 5 (Q9BTE7) (Homo sapiens, UniProt Q9BTE7); conditions: SILAC H/L, HEK293T
T6 construct: shared by both the endogenous and recombinant forms of these proteins; endogenous in cells; host or cells: HEK293T and MDA-MB-231
T6 sequence (Q9BTE7 whole entry): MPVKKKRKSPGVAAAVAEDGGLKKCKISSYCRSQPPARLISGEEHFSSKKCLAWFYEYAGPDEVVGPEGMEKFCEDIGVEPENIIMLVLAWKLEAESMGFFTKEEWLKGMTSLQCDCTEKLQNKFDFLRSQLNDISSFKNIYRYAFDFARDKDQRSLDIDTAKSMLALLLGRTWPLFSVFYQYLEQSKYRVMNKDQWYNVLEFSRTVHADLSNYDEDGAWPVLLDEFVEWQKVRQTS
Summary of the method: as §1

[7] = target: T7, CPVL Probable serine carboxypeptidase CPVL (Q9H3G5) (Homo sapiens, UniProt Q9H3G5); conditions: SILAC H/L, HEK293T
T7 construct: shared by both the endogenous and recombinant forms of these proteins; endogenous in cells; host or cells: HEK293T and MDA-MB-231
T7 sequence (Q9H3G5 23-476): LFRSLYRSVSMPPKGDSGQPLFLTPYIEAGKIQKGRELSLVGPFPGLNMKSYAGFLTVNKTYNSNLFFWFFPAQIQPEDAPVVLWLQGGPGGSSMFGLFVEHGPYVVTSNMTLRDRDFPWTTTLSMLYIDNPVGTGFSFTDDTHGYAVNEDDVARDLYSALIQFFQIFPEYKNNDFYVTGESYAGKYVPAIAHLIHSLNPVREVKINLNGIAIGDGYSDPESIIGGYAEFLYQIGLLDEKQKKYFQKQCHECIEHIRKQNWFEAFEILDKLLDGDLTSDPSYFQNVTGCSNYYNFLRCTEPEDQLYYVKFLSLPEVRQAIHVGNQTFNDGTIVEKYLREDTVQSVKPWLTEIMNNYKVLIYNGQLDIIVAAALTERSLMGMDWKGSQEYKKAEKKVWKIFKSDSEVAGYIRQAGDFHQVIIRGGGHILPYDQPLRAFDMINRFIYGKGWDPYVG
Summary of the method: as §1

[8] = target: T8, PITRM1 Presequence protease mitochondrial (Q5JRX3) (Homo sapiens, UniProt Q5JRX3); conditions: SILAC H/L, MDA-MB-231
T8 construct: In Situ Labelling of Cells with Hydrazine Probes for MS Experiments; endogenous in cells
Summary of the method: as §1

[9] = target: T9, BLMH Bleomycin hydrolase (Q13867) (Homo sapiens, UniProt Q13867); conditions: SILAC H/L, HEK293T
T9 construct: In Situ Labelling of Cells with Hydrazine Probes for MS Experiments; endogenous in cells
T9 sequence (Q13867 whole entry): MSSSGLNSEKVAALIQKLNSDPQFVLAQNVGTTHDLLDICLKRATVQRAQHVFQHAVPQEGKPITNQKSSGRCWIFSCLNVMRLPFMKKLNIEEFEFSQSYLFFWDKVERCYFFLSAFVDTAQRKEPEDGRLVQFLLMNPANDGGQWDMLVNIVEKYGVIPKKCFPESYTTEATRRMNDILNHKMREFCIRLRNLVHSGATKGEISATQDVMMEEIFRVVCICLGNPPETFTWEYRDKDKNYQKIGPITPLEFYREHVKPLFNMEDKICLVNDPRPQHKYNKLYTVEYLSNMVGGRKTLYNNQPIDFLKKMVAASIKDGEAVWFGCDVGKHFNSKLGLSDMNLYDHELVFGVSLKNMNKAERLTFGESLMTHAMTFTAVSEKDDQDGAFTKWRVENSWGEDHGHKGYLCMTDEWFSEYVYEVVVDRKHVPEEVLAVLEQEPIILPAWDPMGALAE
Summary of the method: as §1

[10] = target: T10, ALDH9A1 4trimethylaminobutyraldehyde (P49189) (Homo sapiens, UniProt P49189); conditions: SILAC H/L, HEK293T
T10 construct: shared by both the endogenous and recombinant forms of these proteins; endogenous in cells; host or cells: HEK293T and MDA-MB-231
T10 sequence (P49189 whole entry): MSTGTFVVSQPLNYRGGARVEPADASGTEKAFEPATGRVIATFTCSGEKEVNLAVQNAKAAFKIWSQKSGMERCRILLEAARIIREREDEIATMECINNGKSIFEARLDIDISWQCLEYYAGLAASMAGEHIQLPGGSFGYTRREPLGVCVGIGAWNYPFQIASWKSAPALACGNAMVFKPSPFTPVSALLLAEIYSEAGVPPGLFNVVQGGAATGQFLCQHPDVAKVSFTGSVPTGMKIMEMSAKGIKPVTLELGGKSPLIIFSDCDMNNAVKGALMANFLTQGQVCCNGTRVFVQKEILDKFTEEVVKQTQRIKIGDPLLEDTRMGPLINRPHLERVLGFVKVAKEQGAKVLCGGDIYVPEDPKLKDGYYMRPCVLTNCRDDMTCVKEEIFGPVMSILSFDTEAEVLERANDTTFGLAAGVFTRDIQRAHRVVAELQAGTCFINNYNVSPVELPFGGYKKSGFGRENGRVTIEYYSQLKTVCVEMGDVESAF
Summary of the method: as §1

[11] = target: T11, VAPA Vesicleassociated membrane (Q9P0L0) (Homo sapiens, UniProt Q9P0L0); conditions: SILAC H/L, MDA-MB-231
T11 construct: In Situ Labelling of Cells with Hydrazine Probes for MS Experiments; endogenous in cells
Summary of the method: as §1

[12] = target: T12, IRS4 Insulin receptor substrate 4 (O14654) (Homo sapiens, UniProt O14654); conditions: SILAC H/L, HEK293T
T12 construct: In Situ Labelling of Cells with Hydrazine Probes for MS Experiments; endogenous in cells
Summary of the method: as §1

[13] = target: T13, NSFL1C NSFL1 cofactor p47 (Q9UNZ2) (Homo sapiens, UniProt Q9UNZ2); conditions: SILAC H/L, MDA-MB-231
T13 construct: In Situ Labelling of Cells with Hydrazine Probes for MS Experiments; endogenous in cells
T13 sequence (Q9UNZ2 whole entry): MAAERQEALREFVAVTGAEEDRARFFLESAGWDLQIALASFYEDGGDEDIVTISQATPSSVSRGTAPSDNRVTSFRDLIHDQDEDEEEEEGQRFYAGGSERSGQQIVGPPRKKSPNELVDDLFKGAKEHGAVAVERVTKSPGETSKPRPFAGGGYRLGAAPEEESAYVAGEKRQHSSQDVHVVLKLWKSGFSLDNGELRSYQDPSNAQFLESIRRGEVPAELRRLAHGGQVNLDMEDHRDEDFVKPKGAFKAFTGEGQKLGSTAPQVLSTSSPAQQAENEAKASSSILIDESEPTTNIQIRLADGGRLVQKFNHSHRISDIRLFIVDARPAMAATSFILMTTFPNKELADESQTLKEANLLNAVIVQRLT
Summary of the method: as §1

[14] = target: T14, BLVRB Flavin reductase (NADPH) (P30043) (Homo sapiens, UniProt P30043); conditions: SILAC H/L, HEK293T
T14 construct: shared by both the endogenous and recombinant forms of these proteins; endogenous in cells; host or cells: HEK293T and MDA-MB-231
T14 sequence (P30043 whole entry): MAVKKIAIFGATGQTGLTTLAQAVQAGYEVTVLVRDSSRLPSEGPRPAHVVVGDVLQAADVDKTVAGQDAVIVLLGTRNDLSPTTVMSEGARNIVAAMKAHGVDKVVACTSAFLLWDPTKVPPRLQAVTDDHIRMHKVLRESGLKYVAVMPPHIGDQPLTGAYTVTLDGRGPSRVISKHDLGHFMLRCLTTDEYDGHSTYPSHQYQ
Summary of the method: as §1

`C#CCNN.Cl` [probe 1, prop-2-yn-1-ylhydrazine hydrochloride] showed an enrichment ratioavg ([1]; probe 1 3 mM 0.5 h vs probe 3) of 7, a competition ratioavg ([1]; probe 1 vs probe 1+10x probe 3) of 1 and an enrichment ratioavg ([2]; probe 1 3 mM 0.5 h vs probe 3) of 11. The competition ratioavg ([2]; probe 1 vs probe 1+10x probe 3) was 3, the enrichment ratioavg ([3]; probe 1 3 mM 0.5 h vs probe 3) was 16 and the competition ratioavg ([3]; probe 1 vs probe 1+10x probe 3) was 1. It also gave an enrichment ratioavg ([4]; probe 1 3 mM 0.5 h vs probe 3) of 10, a competition ratioavg ([4]; probe 1 vs probe 1+10x probe 3) of 4 and an enrichment ratioavg ([5]; probe 1 3 mM 0.5 h vs probe 3) of 16. It also gave a competition ratioavg ([5]; probe 1 vs probe 1+10x probe 3) of 4, an enrichment ratioavg ([6]; probe 1 3 mM 0.5 h vs probe 3) of 6 and a competition ratioavg ([6]; probe 1 vs probe 1+10x probe 3) of 2. The enrichment ratioavg ([7]; probe 1 3 mM 0.5 h vs probe 3) was 13, the competition ratioavg ([7]; probe 1 vs probe 1+10x probe 3) was 3 and the enrichment ratioavg ([8]; probe 1 3 mM 0.5 h vs probe 3) was 12. The competition ratioavg ([8]; probe 1 vs probe 1+10x probe 3) was 2, the enrichment ratioavg ([9]; probe 1 3 mM 0.5 h vs probe 3) was 9 and the competition ratioavg ([9]; probe 1 vs probe 1+10x probe 3) was 1. For the same compound, the enrichment ratioavg ([10]; probe 1 3 mM 0.5 h vs probe 3) was 12, the competition ratioavg ([10]; probe 1 vs probe 1+10x probe 3) was 2 and the enrichment ratioavg ([11]; probe 1 3 mM 0.5 h vs probe 3) was 20. The competition ratioavg ([11]; probe 1 vs probe 1+10x probe 3) was 1, the enrichment ratioavg ([12]; probe 1 3 mM 0.5 h vs probe 3) was 20 and the competition ratioavg ([12]; probe 1 vs probe 1+10x probe 3) was 1. For the same compound, the enrichment ratioavg ([13]; probe 1 3 mM 0.5 h vs probe 3) was 8, the competition ratioavg ([13]; probe 1 vs probe 1+10x probe 3) was 1 and the enrichment ratioavg ([14]; probe 1 3 mM 0.5 h vs probe 3) was 20. It also gave a competition ratioavg ([14]; probe 1 vs probe 1+10x probe 3) of 2.
